Measured values published in patent publication US20260317319A1, “NOVEL ERGOLINES AND METHODS OF TREATING MOOD DISORDERS” (Gilgamesh Pharma Inc., priority 2023, published 2026).
Where two headings read alike, the source gives them in different places.

Legend:
in vitro [1] = format: in vitro ADME, human; conditions: for microsomal CLint: read-out: Intrinsic clearance (Clint); for half-life: read-out: half-life (t1/2)
5-HT1A receptor = target: T1, 5-HT1A receptor (Homo sapiens, UniProt P08908); assay: cell-based; conditions: agonist, Ca2+ flux; for Emax: CHO, CHO cells with Gα15, max dose, read-out: 5-HT1A % Act @ Max Dose; for EC50: CHO cells with Gα15
T1 construct: expressed in transfected cells; host or cells: CHO cells, stably transfected
T1 sequence (P08908 1-422): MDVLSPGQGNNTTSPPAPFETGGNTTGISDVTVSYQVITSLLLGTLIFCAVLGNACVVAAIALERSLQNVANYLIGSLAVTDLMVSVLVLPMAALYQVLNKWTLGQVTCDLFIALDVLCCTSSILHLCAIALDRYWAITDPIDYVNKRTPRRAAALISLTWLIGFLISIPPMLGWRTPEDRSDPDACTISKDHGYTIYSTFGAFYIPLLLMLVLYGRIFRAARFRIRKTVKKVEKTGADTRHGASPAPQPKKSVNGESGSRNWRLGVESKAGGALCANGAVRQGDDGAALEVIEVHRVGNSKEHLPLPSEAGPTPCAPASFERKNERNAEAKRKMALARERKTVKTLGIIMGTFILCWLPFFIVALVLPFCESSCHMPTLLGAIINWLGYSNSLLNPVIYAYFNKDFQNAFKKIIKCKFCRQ
Outline: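 Using HEK293 lines for the 5-HT2 subtypes and Gα15-coupled CHO cells for 5-HT1A, compounds were tested as agonists. Fluorescent Ca2+ signal followed dye loading (Fluo-4 Direct, 2.5 mM final probenecid, 50 min, 37 °C).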

5-HT2A receptor [2] = target: T2, 5-HT2A receptor (Homo sapiens, UniProt P28223); assay: cell-based; format: cell-based; conditions: beta-arrestin recruitment; for Emax: read-out: 5-HT2A Arrestin % Act @ Max Dose; for EC50: PathHunter, read-out: 5-HT2A Arrestin EC50
Outline: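 Agonist activity expressed as percent of maximal control ligand signal after vehicle subtraction, from chemiluminescence (RLU). Cells carry ProLink-tagged 5-HT2A plus β-arrestin fused to β-gal deletion mutant; ligand-driven arrestin binding restores β-galactosidase activity (PathHunter). Cells pre-incubated at 37° C.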

in vitro [3] = format: in vitro ADME, rat; conditions: for microsomal CLint: read-out: Intrinsic clearance (Clint); for half-life: read-out: half-life (t1/2)
Text: RLM Stability Pooled RLM from male Sprague-Dawley rats (Xenotech R1000) were used.

5-HT2A receptor [4] = target: T2, 5-HT2A receptor; assay: cell-based; format: cell-based; set-up: expressed in transfected cells; host or cells: HEK293, stably transfected; conditions: Ca2+ flux; for Emax: HEK293, agonist, HEK293, max dose, read-out: 5-HT2A % Act @ Max Dose; for EC50: agonist, HEK293
Outline: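 Agonism measured as calcium flux on FLIPR Tetra. Receptor lines: HEK293 for 5-HT2A and 5-HT2B, CHO with Gα15 for 5-HT1A; dye loading with Fluo-4 Direct and probenecid (2.5 mM final) ran 50 min at 37 °C before compound addition and signal reading.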

5-HT2B receptor = target: T3, 5-HT2B receptor (Homo sapiens, UniProt P41595); assay: cell-based; format: cell-based; conditions: Ca2+ flux; for Emax: HEK293, agonist, read-out: 5-HT2B % Act @ Max Dose; for EC50: HEK293
T3 construct: expressed in transfected cells; host or cells: HEK293, stably transfected
Outline: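 FLIPR Tetra fluorescence read-out of calcium flux after compound addition. Receptor-expressing stable lines were used (HEK293 for 2A/2B; CHO with Gα15 for 1A), dye-loaded with Fluo-4 Direct and 2.5 mM final probenecid, 50 min at 37 °C.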

in vitro [5] = format: in vitro ADME, mouse; conditions: for microsomal CLint: read-out: Intrinsic clearance (Clint); for half-life: read-out: half-life (t1/2)
Text: MLM Stability Pooled MLM from male CD-1 mice (BIOIVT M00501) were used.

5-HT1B receptor = target: T4, 5-HT1B receptor (Homo sapiens, UniProt P28222); assay: cAMP accumulation functional assay at 5-HT1B; format: cell-based; conditions: agonist, cAMP accumulation; for Emax: max dose, read-out: 5-HT1B % Act @ Max Dose
T4 construct: expressed in transfected cells
Outline: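 Stably transfected human 5-HT1B cells were incubated 60 min at room temperature, after which detection reagent was applied for another 60 min at RT. The read-out was cAMP accumulation, used as a measure of agonist activity.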

[6] = HLM 0.50 mg/mL, NADPH 1 mM, 1 μM compound, pH 7.4, 37° C., 60 min
[7] = RLM (male Sprague-Dawley) 0.50 mg/mL, NADPH 1 mM, 1 μM compound, pH 7.4, 37° C., 60 min
[8] = MLM (male CD-1) 0.50 mg/mL, NADPH 1 mM, 1 μM compound, pH 7.4, 37° C., 60 min
[9] = human, microsomes, HLM 0.50 mg/mL, NADPH 1 mM, 1 μM compound, pH 7.4, 37° C., 60 min
[10] = rat, microsomes, RLM (male Sprague-Dawley) 0.50 mg/mL, NADPH 1 mM, 1 μM compound, pH 7.4, 37° C., 60 min
[11] = mouse, microsomes, MLM (male CD-1) 0.50 mg/mL, NADPH 1 mM, 1 μM compound, pH 7.4, 37° C., 60 min

T3 sequence (P41595 whole entry): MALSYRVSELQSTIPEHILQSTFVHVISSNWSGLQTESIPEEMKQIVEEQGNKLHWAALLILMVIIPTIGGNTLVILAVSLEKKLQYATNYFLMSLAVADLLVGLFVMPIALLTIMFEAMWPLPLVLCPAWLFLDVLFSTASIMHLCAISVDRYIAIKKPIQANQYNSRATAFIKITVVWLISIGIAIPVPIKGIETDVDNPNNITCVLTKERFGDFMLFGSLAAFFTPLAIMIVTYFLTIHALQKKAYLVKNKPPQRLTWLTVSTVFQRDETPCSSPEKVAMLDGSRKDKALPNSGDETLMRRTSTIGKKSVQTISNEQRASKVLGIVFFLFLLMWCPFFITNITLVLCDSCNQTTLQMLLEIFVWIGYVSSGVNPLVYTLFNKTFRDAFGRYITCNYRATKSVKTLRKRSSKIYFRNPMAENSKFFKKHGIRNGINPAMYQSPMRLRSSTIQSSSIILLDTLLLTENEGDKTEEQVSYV
T2 sequence (P28223 whole entry, the tested form may be a part): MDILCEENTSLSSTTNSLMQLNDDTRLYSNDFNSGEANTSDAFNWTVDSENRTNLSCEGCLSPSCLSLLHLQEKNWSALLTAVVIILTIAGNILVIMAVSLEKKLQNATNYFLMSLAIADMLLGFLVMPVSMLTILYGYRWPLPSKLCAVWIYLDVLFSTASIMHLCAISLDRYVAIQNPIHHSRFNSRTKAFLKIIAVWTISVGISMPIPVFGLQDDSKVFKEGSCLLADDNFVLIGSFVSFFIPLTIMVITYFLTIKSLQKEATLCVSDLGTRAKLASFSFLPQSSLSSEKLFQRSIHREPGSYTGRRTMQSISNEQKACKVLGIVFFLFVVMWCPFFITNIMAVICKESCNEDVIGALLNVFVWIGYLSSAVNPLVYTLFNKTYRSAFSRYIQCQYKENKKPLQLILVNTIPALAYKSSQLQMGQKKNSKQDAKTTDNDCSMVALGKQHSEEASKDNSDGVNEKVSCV
T4 sequence (P28222 whole entry): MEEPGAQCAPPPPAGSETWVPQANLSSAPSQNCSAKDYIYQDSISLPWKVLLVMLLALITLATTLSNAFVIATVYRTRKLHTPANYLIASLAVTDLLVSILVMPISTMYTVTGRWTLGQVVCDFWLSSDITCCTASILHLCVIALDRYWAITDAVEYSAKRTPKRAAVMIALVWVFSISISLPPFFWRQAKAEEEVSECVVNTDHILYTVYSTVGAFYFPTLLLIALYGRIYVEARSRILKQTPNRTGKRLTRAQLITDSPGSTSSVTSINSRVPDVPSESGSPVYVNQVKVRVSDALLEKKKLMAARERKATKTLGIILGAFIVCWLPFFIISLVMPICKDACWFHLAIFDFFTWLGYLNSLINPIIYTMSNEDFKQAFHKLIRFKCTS

SMILES	stability in HLM (in vitro [1])	half-life (t1/2) (in vitro [1]; [6])	Emax (5-HT1A receptor)	Emax (5-HT2A receptor [2]; agonist, max dose)	5-HT2A arrestin agonist class (5-HT2A receptor [2])	stability in RLM (in vitro [3])	half-life (t1/2) (in vitro [3]; [7])	Emax (5-HT2A receptor [4])	Emax (5-HT2B receptor; HEK293, max dose)	Emax (5-HT1B receptor)	microsomal CLint (in vitro [1]; [9])	half-life (in vitro [1]; [9])	EC50 (5-HT1A receptor)	EC50 (5-HT2A receptor [4])	EC50 (5-HT2B receptor; agonist)	EC50 (5-HT1B receptor)	microsomal CLint (in vitro [3]; [10])	half-life (in vitro [3]; [10])	microsomal CLint (in vitro [5]; [11])	half-life (in vitro [5]; [11])	other results
CCCN1C[C@H](C(=O)N(CC)CC)C=C2c3cccc4[nH]cc(c34)C[C@H]21 [Compound 1, (6aR,9R)—N,N-diethyl-7-propyl-4,6,6a,7,8,9-hexahydroindolo[4,3-fg]quinoline-9-carboxamide]	much lower stability (higher clearance)	15.1 min	95.6%	129%	full agonists	much lower stability (higher clearance)	16.2 min	97%	104%	96.6%	–	–	–	–	–	–	–	–	–	–	stability in MLM (in vitro [5]): much lower stability (higher clearance); half-life (t1/2) (in vitro [5]; [8]): 2.3 min
C=CCN1C[C@H](C(=O)N[C@H](C)CC)C=C2c3cccc4[nH]cc(c34)C[C@H]21 [Compound 8, (6aR,9R)-7-allyl-N—((R)-sec-butyl)-4,6,6a,7,8,9-hexahydroindolo[4,3-fg]quinoline-9-carboxamide]	much lower stability (higher clearance)	7.9 min	116%	112%	full agonists	much lower stability (higher clearance)	7.7 min	99.2%	91.6%	–	–	–	–	–	–	–	–	–	–	–	stability in MLM (in vitro [5]): much lower stability (higher clearance); half-life (t1/2) (in vitro [5]; [8]): 3.7 min
CCN(CC)C(=O)[C@@H]1C=C2c3cccc4[nH]cc(c34)C[C@H]2N(CCc2ccccc2OC)C1 [Compound 11, (6aR,9R)—N,N-diethyl-7-(2-methoxyphenethyl)-4,6,6,7,8,9-hexahydroindolo[4,3-fg]quinoline-9-carboxamide]	much lower stability (higher clearance)	2.372 min	–	–	–	much lower stability (higher clearance)	1.159 min	–	–	–	–	–	–	–	–	–	–	–	–	–	Intrinsic clearance (Clint) (in vitro [1]; [6]): 584.336 µL/min/mg; 5-HT2A Arrestin % Act @ Max Dose (5-HT2A receptor [2]; agonist, max dose): 54.26%; Intrinsic clearance (Clint) (in vitro [3]; [7]): 1195.423 µL/min/mg; 5-HT2B % Act @ Max Dose (5-HT2B receptor; agonist, HEK293, max dose): 2.5%; stability in MLM (in vitro [5]): much lower stability (higher clearance); Intrinsic clearance (Clint) (in vitro [5]; [8]): 1512.047 µL/min/mg; half-life (t1/2) (in vitro [5]; [8]): 0.917 min
CCN(CC)C(=O)[C@@H]1C=C2c3cccc4[nH]cc(c34)C[C@H]2N(Cc2ccc(F)cc2)C1 [Compound 49, (6aR,9R)—N,N-diethyl-7-(4-fluorobenzyl)-4,6,6a,7,8,9-hexahydroindolo[4,3-fg]quinoline-9-carboxamide]	–	–	14.3%	39.4%	–	–	–	92.5%	3.58%	37.9%	87.8 µL/min/mg	15.8 min	> 10 µM	1590 nM	> 10 µM	> 10000 nM	–	–	–	–	EC50 (5-HT2A receptor [2]; agonist): 7.68 nM
CCN(CC)C(=O)[C@@H]1C=C2c3cccc4[nH]cc(c34)C[C@H]2N(Cc2ccc(Cl)cc2)C1 [Compound 50, (6aR,9R)-7-(4-chlorobenzyl)-N,N-diethyl-4,6,6a,7,8,9-hexahydroindolo[4,3-fg]quinoline-9-carboxamide]	–	–	8.23%	41.2%	–	–	–	88.2%	2.94%	41.9%	65 µL/min/mg	21.3 min	> 10 µM	3240 nM	> 10 µM	> 10000 nM	–	–	–	–	EC50 (5-HT2A receptor [2]; agonist): 34.7 nM
CCN(CC)C(=O)[C@@H]1C=C2c3cccc4[nH]cc(c34)C[C@H]2N(Cc2ccon2)C1 [Compound 70, (6aR,9R)—N,N-diethyl-7-(isoxazol-3-ylmethyl)-4,6,6a,7,8,9-hexahydroindolo[4,3-fg]quinoline-9-carboxamide]	–	–	58.6%	–	–	–	–	84.7%	34.4%	17.8%	54.3 µL/min/mg	25.5 min	62.3 µM	38 nM	0.449 µM	> 10000 nM	47.9 µL/min/mg	28.9 min	154 µL/min/mg	9 min	–
CCN(CC)C(=O)[C@@H]1C=C2c3cccc4[nH]cc(c34)C[C@H]2N(Cc2cocn2)C1 [Compound 73, (6aR,9R)—N,N-diethyl-7-(oxazol-4-ylmethyl)-4,6,6a,7,8,9-hexahydroindolo[4,3-fg]quinoline-9-carboxamide]	–	–	78.7%	–	–	–	–	92.1%	60.9%	73.6%	45.6 µL/min/mg	30.4 min	0.586 µM	47.6 nM	0.375 µM	1370 nM	51.8 µL/min/mg	26.8 min	76.7 µL/min/mg	18.1 min	–
CCN(CC)C(=O)[C@@H]1C=C2c3cccc4[nH]cc(c34)C[C@H]2N(Cc2cccc(C#N)c2)C1 [Compound 76, (6aR,9R)—N,N-diethyl-7-(3-cyanobenzyl)-4,6,6a,7,8,9-hexahydroindolo[4,3-fg]quinoline-9-carboxamide]	–	–	77%	–	–	–	–	82.1%	0.93%	93.4%	64.1 µL/min/mg	21.6 min	25.4 µM	6620 nM	> 10 µM	1490 nM	114 µL/min/mg	12.1 min	576 µL/min/mg	2.4 min	–
CCN(C)C(=O)[C@@H]1C=C2c3cccc4[nH]cc(c34)C[C@H]2N(Cc2ccccc2)C1 [Compound 85, (6aR,9R)-7-benzyl-N-ethyl-N-methyl-4,6,6a,7,8,9-hexahydroindolo[4,3-fg]quinoline-9-carboxamide]	–	–	36.8%	–	–	–	–	60.6%	3.73%	–	95 µL/min/mg	14.6 min	> 10 µM	500 nM	> 10 µM	–	131 µL/min/mg	10.5 min	184 µL/min/mg	7.5 min	–
CC[C@@H](C)NC(=O)[C@@H]1C=C2c3cccc4[nH]cc(c34)C[C@H]2N(C)C1 [Int8]	–	–	90.2%	46.1%	partial agonists	–	–	96.2%	17.7%	–	–	–	–	–	–	–	–	–	–	–	half-life (t1/2) (in vitro [1]; human, microsomes, pH 7.4): 64.9 min; half-life (t1/2) (in vitro [3]; rat, microsomes, pH 7.4): 99.5 min; half-life (t1/2) (in vitro [5]; mouse, microsomes, pH 7.4): 39.9 min
